Source: patent US12576082B2, “METTL16 inhibitors and uses thereof” (City of Hope, priority 2019, dated 2026)

Legend:
AML and other cancers = experiment: Cell viability of cancer cell lines on CDH24 treatment (MTT); type: cell-based, human
Procedure: (§1) Cell viability and proliferation assay. Cell viability and proliferation were performed with CellTiter 96 Non-Radioactive Cell Proliferation Assay (MTT, […], Promega). To verify the function of METTL16 inhibitor, cancer cells were seeded into 96-well plate and treated with a series of drug concentration in triplicates. For the cell proliferation with METTL16 knockdown stable cell lines were seeded into 96-well plates, and cultured in the incubator at 37° C. with 5% CO2. 15 μl of the Dye Solution was added into each well. After incubation of 2-4 h, 100 μl of the Solubilization Solution/Stop Mix was added to each well. Finally, the absorbance was determined at 570 nm on the next day.
FIG. 4A provides a Western blots analysis showing the levels of METTL16 expression in various AML cell lines (Kasumi-1, MONOMAC6 (MM6), K562, ML-2, 9.3ITD, U937) and normal bone marrow (BM) mononuclear cells. Actin served as a loading control. […] The values were detected by MTT assays 48 or 72 hours post treatment. In FIGS. 4A-4K: *p<0.05; **p<0.01; ***p<0.001; t test. Error bars, mean±SEM (n≥3)

METTL16 [1] = biological target: T1, METTL16 (Homo sapiens, UniProt Q86W50); experiment: m6A dot blot, global m6A in AML cells; type: cell-based
T1 construct: endogenous in cells; host or cells: U937, Kasumi-1, MA9.3RAS (human AML cells)
T1 sequence (Q86W50 1-562): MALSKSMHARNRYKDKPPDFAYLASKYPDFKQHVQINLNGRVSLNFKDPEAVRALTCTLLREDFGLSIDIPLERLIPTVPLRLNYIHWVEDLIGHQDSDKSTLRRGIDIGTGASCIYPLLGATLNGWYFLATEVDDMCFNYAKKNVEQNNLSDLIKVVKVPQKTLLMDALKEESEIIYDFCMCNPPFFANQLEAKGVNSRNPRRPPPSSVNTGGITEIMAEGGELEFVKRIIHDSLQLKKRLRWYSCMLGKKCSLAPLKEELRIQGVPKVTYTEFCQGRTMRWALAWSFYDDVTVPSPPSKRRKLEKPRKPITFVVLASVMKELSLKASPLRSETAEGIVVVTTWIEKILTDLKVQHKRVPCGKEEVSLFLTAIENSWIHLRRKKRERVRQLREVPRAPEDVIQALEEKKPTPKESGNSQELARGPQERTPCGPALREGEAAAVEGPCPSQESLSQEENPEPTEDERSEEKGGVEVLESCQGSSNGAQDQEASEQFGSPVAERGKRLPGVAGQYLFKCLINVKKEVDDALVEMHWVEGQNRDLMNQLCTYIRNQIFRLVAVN
Procedure: m^6A dot blot assay. Total RNA was purified with QIAzol regent, and mixed well with 3 volumes of RNA incubation buffer, then denatured at 65° C. for 5 minutes and cooling down on ice immediately. 200 ul of 10×SSC buffer (S6639, Sigma-Aldrich) was loaded onto the Amersham Hybond-N+ membrane for each well to pre-wet the membrane. Then one volume of 20×SSC buffer was added into the RNA samples before dotted onto the membrane. The UV irradiation was used to crosslink RNA to the membrane. After crosslink, the membrane was stained by 0.02% methylene blue and scanned as loading control. Then, the membrane was blocked with 5% nonfat dry milk at room temperature for 1 h and incubated with anti-m6A antibody (1:2000, Synaptic Systems) overnight at 4° C. Next day, the membrane was incubated with the HRP-conjugated goat anti-rabbit IgG (ab6721, abcam) at room temperature for 1 h and developed with pierce ECL Western blotting Substrate (PI32106, Thermo Fisher).
MB, methyl blue (as loading control). FIGS. 6B-6C show gene-specific m^6A qPCR analysis of m^6A level changes in mRNA transcripts of several known target transcripts of METTL16 in U937 (FIG. 6B) or MA9.3RAS (FIG. 6C) AML cells upon 72 hours treatment of […], relative to cells treated with DMSO.

METTL16 [2] = biological target: T1, METTL16; experiment: Drug affinity responsive target stability (DARTS) in U937 cell lysates; type: binding; conditions: CDH24 0.1 uM to 500 uM, pronase digestion, immunoblot
Procedure: Drug Affinity Responsive Targets Stability (DARTS). […] In short, 4×10^7 U937 cells were collected, washed with chilled PBS, and lysed in 600 ul M-PER (78501, Thermo Fisher Scientific) supplement with protease inhibitor cocktail and phosphatase inhibitor cocktail. The cells were lysed on ice for 10 min, and centrifuged at 18,000 g for 10 min at 4° C. The supernatant was carefully transferred to a new tube. 10× TNC buffer (500 mM Tris-HCl with pH 8.0, 500 mM NaCl, 100 mM CaCl2) was added into lysate, the protein concentration was then detected by BCA assay. The protein concentration diluted with 1× TNC buffer was adjusted to 5 ug/ul. […] The reaction was quenched by addition of protease inhibitor cocktail and the sample was immediately placed on ice. 4× Laemmli Sample Buffer was added to lysate and denatured at 99° C. for 10 min. Finally, western blotting was used to determine the abundance of METTL16.
(§2) For DARTS, U937 cell lysates were treated with CDH-24 (from 0.1 uM to 500 uM) or DMSO; samples were subjected to pronase digestion and detected by immunoblotting. Actin was resistant to subtilizing under these conditions and served as a loading control. […] METTL16 knockdown by shRNAs was confirmed by western blots (FIG. 5D). […] In FIGS. 5A-5F: *p<005; **p<0.01: ***p<0001; t test. Error bars, mean±SEM (n≥3).

METTL16 [3] = biological target: T1, METTL16; experiment: Cellular thermal shift assay (CETSA) in U937 cells; type: binding; conditions: 50 μM CDH24 1 h, different temperatures, immunoblot
Procedure: Cellular Thermal Shift Assay (CETSA). […] Then, the cells were re-suspended in 1.5 ml PBS supplemented with protease inhibitor cocktail. And the cells were distributed into 10 different 200 ul 8-strip PCR tubes with 100 ul for each tube, heat shocked in the Bio-Rad T100 Thermal Cycler at indicated temperature for 3 min to denature proteins, and immediately cooled down at room temperature for 3 min. cells were lysed using dry ice and two repeated cycles of freeze-thaw, then centrifuged at 20,000 g for 20 min at 4° C. Soluble proteins, collected from the supernatant were denatured with 4× Laemmli Sample Buffer at 99° C. for 10 min. Finally, the protein samples were analyzed by western blot.
as §2

AML cells = experiment: Cell viability and growth in AML cells (FIGS. 9A-9B); type: cell-based
Procedure: as §1

human NOMO-1 AML cells = experiment: Viability of human NOMO-1 AML cells (MTT, CellTiter 96); type: cell-based; conditions: NOMO-1 cells, 10,000 cells/well, 72 h treatment, read-out: IC50 in inhibiting the viability of human NOMO-1 AML cells
Procedure: as §1
The compounds described herein were tested for their ability to inhibit the viability of human NOMO-1 AML cells. […] Cell viability. NOMO-1 cells were seeded into 96-well plate in the concentration of 10,000 cells/well and treated with compounds in triplicates for 72 h. Cell viability was assessed by CellTiter 96 Non-Radioactive Cell Proliferation Assay (MTT, G4100, Promega) following the manufacturer's protocols.

## Nc1ccc(Cn2ccc3c4c(N)nc(N)nc4ccc32)cc1 [CDH24]
AML and other cancers; FIGS. 4A-4K
  cell viability and growth in AML and other cancers: inhibitory effect
AML and other cancers; MTT assay 72 hours post treatment, series of concentrations
  cell viability in ALL, lymphoma, cervical cancer, pancreatic cancer and glioblastoma cell lines: inhibitory effects
METTL16 [1]; FIGS. 6A-6C
  methyltransferase activity of METTL16 and expression of METTL16 target genes: inhibitory effect
METTL16 [1]; U937, Kasumi-1 and MA9.3RAS AML cells, 48 hours treatment
  levels of global m^6A: increases
METTL16 [2]
  binding to METTL16 by DARTS: direct binding
METTL16 [3]
  binding to METTL16 by CETSA: direct binding

## Nc1ccc(CO)c(Cn2ccc3c4c(N)nc(N)nc4ccc32)c1 [CDH24-7]
AML cells
  cell viability and growth in AML cells: inhibit cell viability and growth

## N#Cc1ccc(C(=O)n2ccc3c4c(N)nc(N)nc4ccc32)cc1 [Compound (G)]
Human NOMO-1 AML cells
  IC50: 736 nM

## CC(=O)Nc1ccc(Cn2ccc3c4c(N)nc(N)nc4ccc32)cc1 [Compound D]
Human NOMO-1 AML cells
  IC50: 1.4 nM

## Nc1nc(N)c2c(ccc3c2ccn3Cc2ccc(Cl)cc2)n1 [Compound (F)]
Human NOMO-1 AML cells
  IC50: 1.55 nM

## Nc1nc(N)c2c(ccc3[nH]ccc32)n1 [Compound H]
Human NOMO-1 AML cells
  IC50: 931 nM

## N#Cc1ccc(-n2ccc3c4c(N)nc(N)nc4ccc32)cc1 [Compound (E)]
Human NOMO-1 AML cells
  IC50: 20.6 nM

## Nc1ccc(Cn2ccc3c4c(N)nc(N)nc4ccc32)c(CO)c1 [CDH24-6]
AML cells
  cell viability and growth in AML cells: inhibit cell viability and growth
